According to patent US20110306597A1, “Nicotinamide Derivatives” (priority 2008, published 2011):

target: T1, human recombinant H-PGDS (Homo sapiens, UniProt O60760); experiment: Fluorescence Intensity h-PGDS TBA Enzyme Assay; format: biochemical; settings: 1:175,000 human recombinant H-PGDS, highest inhibitor concentration typically 1 μM
Outline: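 Readout is PGH2 depletion: after a 42 s reaction with 5.0 μM PGH2 and 2.5 mM glutathione (pH 8.0 Tris, 10 min inhibitor preincubation), Fe(II) converts leftover PGH2 to MDA, which forms a fluorescent TBA complex. IC50s come from 11-point, 3-fold duplicate curves, 4-parameter fit.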

T1 sequence (O60760 whole entry): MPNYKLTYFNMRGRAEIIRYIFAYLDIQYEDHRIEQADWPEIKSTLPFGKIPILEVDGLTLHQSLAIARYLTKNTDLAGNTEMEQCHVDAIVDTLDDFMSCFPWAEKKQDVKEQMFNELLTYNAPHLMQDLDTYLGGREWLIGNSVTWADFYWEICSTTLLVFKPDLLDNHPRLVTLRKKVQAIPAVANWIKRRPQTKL

Row | Compound | IC50 [nM]
1 | COc1cc(CNC(=O)c2cnc(-c3cccc(F)c3)c(Cl)c2)cc2c1OCCO2 [Example 548, 5-Chloro-6-(3-fluorophenyl)-N-[(8-methoxy-2,3-dihydro-1,4-benzodioxin-6-yl)methyl]nicotinamide] | 54.7
2 | O=C(NCC(O)c1ccccc1F)c1cnc(-c2cccc(F)c2)c(Cl)c1 (centres unmarked) [Example 549, 5-Chloro-6-(3-fluorophenyl)-N-[2-(2-fluorophenyl)-2-hydroxyethyl]nicotinamide] | 37.9
3 | CCCOCCCNC(=O)c1cnc(-c2cccc(F)c2)c(Cl)c1 [Example 550, 5-Chloro-6-(3-fluorophenyl)-N-(3-propoxypropyl)nicotinamide] | 30.4
4 | O=C(NCCCn1ncc2ccccc21)c1cnc(-c2cccc(F)c2)c(Cl)c1 [Example 551, 5-Chloro-6-(3-fluorophenyl)-N-[3-(1H-indazol-1-yl)propyl]nicotinamide] | 84.7
5 | O=C(NCCN1CCOCC1)c1cnc(-c2cccc(F)c2)c(Cl)c1 [Example 552, 5-Chloro-6-(3-fluorophenyl)-N-(2-morpholin-4-ylethyl)nicotinamide] | 60.8
6 | O=C(NCCC1CCCCO1)c1cnc(-c2cccc(F)c2)c(Cl)c1 (centres unmarked) [Example 553, 5-Chloro-6-(3-fluorophenyl)-N-[2-(tetrahydro-2H-pyran-2-yl)ethyl]nicotinamide] | 31.8
7 | CNS(=O)(=O)c1ccc(CNC(=O)c2cnc(-c3cccc(F)c3)c(Cl)c2)cc1 [Example 554, 5-Chloro-6-(3-fluorophenyl)-N-{4-[(methylamino)sulfonyl]benzyl}nicotinamide] | 223
8 | COc1cc(F)cc(-c2ccc(C(=O)NCc3ccc(OC)c(OC)c3)cn2)c1 [Example 556, N-(3,4-Dimethoxybenzyl)-6-(3-fluoro-5-methoxyphenyl)nicotinamide] | 90
9 | CCCOCCCNC(=O)c1ccc(-c2cc(F)cc(OC)c2)nc1 [Example 557, 6-(3-Fluoro-5-methoxypheny)-N-(3-propoxypropyl)nicotinamide] | 89.6
10 | COc1cc(F)cc(-c2ccc(C(=O)NCC3CCN(C(C)=O)CC3)cn2)c1 [Example 558, N-[(1-Acetylpiperidin-4-yl)methyl]-6-(3-fluoro-5-methoxyphenyl)nicotinamide] | 119
11 | CNS(=O)(=O)c1ccc(CNC(=O)c2ccc(-c3cc(F)cc(OC)c3)nc2)cc1 [Example 559, 6-(3-Fluoro-5-methoxyphenyl)-N-{4-[(methylamino)sulfonyl]benzyl}nicotinamide] | 440
12 | COc1cc(F)cc(-c2ccc(C(=O)NCCC3CCCCO3)cn2)c1 (centres unmarked) [Example 560, 6-(3-Fluoro-5-methoxyphenyl)-N-[2-(tetrahydro-2H-pyran-2-yl)ethyl]nicotinamide] | 129
13 | CN(C)CCOc1ccc(CNC(=O)c2cnc(-c3cccc(F)c3)c(Cl)c2)cc1 [Example 561, 5-Chloro-N-{4-[2-(dimethylamino)ethoxy]benzyl}-6-(3-fluorophenyl)nicotinamide] | 19.8
14 | CNC(=O)N1[C@@H]2CC[C@H]1C[C@H](NC(=O)c1ccc(-c3cccc(F)c3)nc1)C2 [Example 594, (3-exo)-3-({[6-(3-Fluorophenyl)-pyridin-3-yl]carbonyl}amino)-N-methyl-8-azabicyclo[3.2.1]octane-8-carboxamide] | 17
15 | CN(C)C(=O)N1[C@@H]2CC[C@H]1C[C@H](NC(=O)c1ccc(-c3cccc(F)c3)nc1)C2 [Example 595, (3-exo)-3-({[6-(3-Fluorophenyl)-pyridin-3-yl]carbonyl}amino)-N,N-dimethyl-8-azabicyclo[3.2.1]octane-8-carboxamide] | 3
16 | O=C(N[C@@H]1C[C@H]2CC[C@@H](C1)N2C(=O)N1CCC(O)CC1)c1ccc(-c2cccc(F)c2)nc1 [Example 596, 6-(3-Fluorophenyl)-N-(3-exo)-8-[(4-hydroxypiperidin-1-ylcarbonyl]-8-azabicyclo[3.2.1]octyl-3-yl}nicotinamide] | 11
17 | O=C(N[C@@H]1C[C@H]2CC[C@@H](C1)N2C(=O)NCCO)c1ccc(-c2cccc(F)c2)nc1 [Example 597, (3-exo)-3-({[6-(3-Fluorophenyl)-pyridin-3-yl]carbonyl}amino)-N-(2-hydroxyethyl)-8-azabicyclo[3.2.1]octane-8-carboxamide] | 35
18 | N-(3-Fluorobenzyl)-6-(3- methylphenyl)nicotinamide [Example 238] | 38.9
19 | N-(4-Fluorophenyl)-6-(3- fluorophenyl)nicotinamide [Example 425] | 52.6
20 | N-(4-Fluorophenyl)-6-(3- methoxyphenyl)nicotinamide [Example 307] | 187
21 | N-[2-(Benzyloxy)ethyl]-5-chloro-6-(3-fluorophenyl)nicotinamide [Example 555] | 174

Second part, the compound after the results:

Row | IC50 [nM] | Compound
22 | 4.89 | Cc1ccc(C#N)c(N2C[C@H](NC(=O)c3ccc(-c4cccc(F)c4)nc3)[C@@H](O)C2)n1 [Example 562, N-[(3S,4S)-1-(3-Cyano-6-methylpyridin-2-yl)-4-hydroxypyrrolidin-3-yl]-6-(3-fluorophenyl)nicotinamide]
23 | 5.15 | Cc1cc(C)c(C#N)c(N2C[C@H](NC(=O)c3ccc(-c4cccc(F)c4)nc3)[C@@H](O)C2)n1 [Example 563, N-[(3S,4S)-1-(3-Cyano-4,6-dimethylpyridin-2-yl)-4-hydroxypyrrolidin-3-yl]-6-(3-fluorophenyl)nicotinamide]
24 | 61.6 | CCc1cn2nc(N3C[C@H](NC(=O)c4ccc(-c5cccc(F)c5)nc4)[C@@H](O)C3)ccc2n1 [Example 564, N-[(3S,4S)-1-(2-ethylimidazo[1,2-b]pyridazin-6-yl)-4-hydroxypyrrolidin-3-yl]-6-(3-fluorophenyl)nicotinamide]
25 | 10.6 | COc1ccc(CNC(=O)c2ccc(-c3cc(F)cc(F)c3)nc2)cc1OC [Example 567, 6-(3,5-Difluorophenyl)-N-(3,4-dimethoxybenzyl)nicotinamide]
26 | 2.63 | O=C(NCC1C(=O)Nc2ccccc21)c1ccc(-c2cc(F)cc(F)c2)nc1 (centres unmarked) [Example 568, 6-(3,5-Difluorophenyl)-N-[(2-oxo-2,3-dihydro-1H-indol-3-yl)methyl]nicotinamide]
27 | 25.1 | CCCOCCCNC(=O)c1ccc(-c2cc(F)cc(F)c2)nc1 [Example 569, 6-(3,5-Difluorophenyl)-N-(3-propoxypropyl)nicotinamide]
28 | 32.5 | O=C(NCC1CCCN(c2ccccn2)C1)c1ccc(-c2cc(F)cc(F)c2)nc1 (centres unmarked) [Example 570, 6-(3,5-Difluorophenyl)-N-[(1-pyridin-2-ylpiperidin-3-yl)methyl]nicotinamide]
29 | 62.1 | CNS(=O)(=O)c1ccc(CNC(=O)c2ccc(-c3cc(F)cc(F)c3)nc2)cc1 [Example 571, 6-(3,5-Difluorophenyl)-N-{4-[(methylamino)sulfonyl]benzyl}nicotinamide]
30 | 0.886 | O=C(NC[C@@H]1COc2ccccc2C1)c1ccc(-c2cccc(F)c2)nc1 [Example 572]
31 | 3.24 | O=C(NC[C@H]1COc2ccccc2C1)c1ccc(-c2cccc(F)c2)nc1 [Example 573]

target: T1, human recombinant H-PGDS; experiment: Slightly modified h-PGDS TBA enzyme assay (Examples 529, 565, 566, 574-588 and 591); format: biochemical; settings: slightly modified assay (Examples 529, 565, 566, 574-588 and 591); 1:40,000 human recombinant H-PGDS
Procedure: Prostaglandin D Synthase (PGDS) converts the substrate prostaglandin H2 (PGH2) to prostaglandin D2. The depletion of PGH2 was measured via an Fe(II) reduction of the remaining PGH2 to malondialdehyde (MDA) and 12-HHT. The enzyme assay is based on the quantitative formation of a fluorescent complex from the non-fluorescent compounds MDA and 2-thiobarbituric acid (TBA), substantially as described in U.S. patent application publication US-2004/152148 by Lombardt.
Examples 529, 565, 566, 574-588 and 591 were tested in a slightly modified assay: The enzyme assay (30 μls during biological process) contained 100 mM Trizma pH 8.0, 100 μM MgCl2, 0.1 mg/ml IgG Rabbit serum, 5.0 μM PGH2 (Cayman; ethanol solution, #17020), 2.5 mM L-Glutathione (Sigma; reduced form #G4251), 1:40,000 human recombinant H-PGDS (from 1 mg/ml), 0.5% DMSO and inhibitor (varying concentration). 3 μls of diluted inhibitor (dissolved in DMSO) was plated into a 384-well assay plate followed by a 24 μl addition of an enzyme solution containing h-PGDS, Trizma, MgCl2, IgG and L-Glutathione. After pre-incubation of inhibitor and enzyme solution for 10 minutes at room temperature, the reaction was initiated with a 3 μl addition of substrate solution in 10 mM HCl. The reaction was terminated after 40 second by the addition of 3 μl stop buffer containing FeCl2 and citric acid. After addition of 45 μls of TBA plates were heated for one hour in a 70° C. oven. Plates were cooled at room temperature overnight and read on a plate reader the next day with excitation @ 530 nm and emission @ 560 nm. IC50's of inhibitors were calculated with a 4-parameter fit using 11 inhibitor concentrations in duplicate with ½ log serial dilutions. Controls on each plate included no inhibitor (zero % effect) and an inhibitor 500-fold in excess of its' IC50 (100% effect). The highest inhibitor concentration tested was typically 10 μM.

Row | IC50 [nM] | Compound
32 | 11.3 | O=C(N[C@H]1[C@@H]2CN(c3ncccn3)C[C@@H]21)c1ccc(-c2cccc(F)c2)nc1 [Example 529, 6-(3-Fluorophenyl)-N-[(1R,5S,6s)-3-pyrimidin-2-yl-3-azabicyclo[3.1.0]hex-6-yl]nicotinamide]
33 | 114 | CC(=O)N1CCC(CNC(=O)c2ccc(-c3cc(F)ccc3O)nc2)CC1 [Example 565, N-[(1-Acetylpiperidin-4-yl)methyl]-6-(5-fluoro-2-hydroxyphenyl)nicotinamide]
34 | 349 | CCOCCNC(=O)c1ccc(-c2cc(F)ccc2O)nc1 [Example 566, N-(2-Ethoxyethyl)-6-(5-fluoro-2-hydroxyphenyl)nicotinamide]
35 | 1200 | O=C(NCCN1CCCC1)c1ccc(-c2cccc(F)c2)nc1 [Example 574, 6-(3-Fluorophenyl)-N-(2-pyrrolidin-1-ylethyl)nicotinamide]
36 | 162 | O=C(NCCN1CCC(O)CC1)c1ccc(-c2cccc(F)c2)nc1 [Example 575, 6-(3-Fluorophenyl)-N-[2-(4-hydroxypiperidin-1-yl)ethyl]nicotinamide]
37 | 93.4 | CCCNC(=O)c1ccc(-c2cccc(F)c2)nc1 [Example 576, 6-(3-Fluorophenyl)-N-propylnicotinamide]
38 | 275 | O=C(NCCO)c1ccc(-c2cccc(F)c2)nc1 [Example 577, 6-(3-Fluorophenyl)-N-(2-hydroxyethyl)nicotinamide]
